Experimental data published in patent publication US9815846B2 (Merck Sharp & Dohme Corp., priority 2014, dated 2017).

Target: human TrkA receptor (Homo sapiens (Human), UniProt P04629)
Test: DiscoverX PathHunter TrkA functional assay (NGF-stimulated U2OS cells)
Format: cell-based
Details: U2OS cells expressing human TrkA-PK, Shc1-EA and p75NTR; compound 1 h, then NGF at ~80% of maximal response for 3 h; luminescence

human TrkA receptor, sequence (P04629 33-796): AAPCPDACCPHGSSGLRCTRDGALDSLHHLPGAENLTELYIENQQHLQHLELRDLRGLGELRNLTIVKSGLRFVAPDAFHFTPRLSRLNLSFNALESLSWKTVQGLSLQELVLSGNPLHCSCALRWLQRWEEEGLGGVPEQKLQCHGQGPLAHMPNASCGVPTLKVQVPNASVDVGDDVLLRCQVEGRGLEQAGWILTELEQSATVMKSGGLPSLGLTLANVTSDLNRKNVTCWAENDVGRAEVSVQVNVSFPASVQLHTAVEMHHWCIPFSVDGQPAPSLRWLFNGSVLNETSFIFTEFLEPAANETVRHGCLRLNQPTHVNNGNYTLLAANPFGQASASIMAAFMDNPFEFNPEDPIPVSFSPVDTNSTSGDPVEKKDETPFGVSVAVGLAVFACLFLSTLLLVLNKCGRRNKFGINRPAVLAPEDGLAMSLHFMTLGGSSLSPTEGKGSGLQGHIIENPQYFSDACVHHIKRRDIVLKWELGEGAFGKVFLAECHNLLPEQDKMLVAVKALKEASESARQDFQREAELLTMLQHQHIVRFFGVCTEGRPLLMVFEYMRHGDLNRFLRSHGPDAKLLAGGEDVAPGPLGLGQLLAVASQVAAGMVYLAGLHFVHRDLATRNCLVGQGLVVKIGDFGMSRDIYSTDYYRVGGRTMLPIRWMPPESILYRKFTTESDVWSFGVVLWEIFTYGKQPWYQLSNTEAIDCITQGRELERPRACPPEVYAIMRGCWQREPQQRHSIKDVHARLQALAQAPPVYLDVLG

Row | Compound | IC50
1 | Cn1ccc(-c2cc(C(=O)Nc3ncc(CNC(=O)CO)nc3-c3ccccc3)c(F)cc2C(F)(F)F)n1 [Example 65, 2-fluoro-N-(5-((2-hydroxyacetamido)methyl)-3-phenylpyrazin-2-yl)-5-(1-methyl-1H-pyrazol-3-yl)-4-(trifluoromethyl)benzamide] | 3.3 nM
2 | Cn1ccc(-c2cc(C(=O)Nc3cnc(CNC(=O)CS(C)(=O)=O)nc3-c3ccccc3)c(F)cc2C(F)(F)F)n1 [Example 67, 2-fluoro-5-(1-methyl-1H-pyrazol-3-yl)-N-(2-((2-(methylsulfonyl)acetamido)methyl)-4-phenylpyrimidin-5-yl)-4-(trifluoromethyl)benzamide] | 1.6 nM
3 | Cn1ccc(-c2cc(C(=O)Nc3cnc(CNC(=O)Cn4cncn4)nc3-c3ccccc3)c(F)cc2C(F)(F)F)n1 [Example 68] | 0.4 nM
4 | Cn1ccc(-c2cc(C(=O)Nc3ncc(CNC(=O)CO)cc3-c3ccccc3)c(F)cc2C(F)(F)F)n1 [Example 69, 2-fluoro-N-(5-((2-hydroxyacetamido)methyl)-3-phenylpyridin-2-yl)-5-(1-methyl-1H-pyrazol-3-yl)-4-(trifluoromethyl)benzamide] | 18 nM
5 | Cn1ccc(-c2cc(C(=O)Nc3cnc(CNC(=O)CN4CCOC4=O)nc3-c3ccccc3)c(F)cc2C(F)(F)F)n1 [Example 70, 2-fluoro-5-(1-methyl-1H-pyrazol-3-yl)-N-(2-((2-(2-oxooxazolidin-3-yl)acetamido)methyl)-4-phenylpyrimidin-5-yl)-4-(trifluoromethyl)benzamide] | 0.53 nM
6 | C[C@@H](O)C(=O)NCc1cnc(NC(=O)c2cc(-c3ccn(C)n3)c(C(F)(F)F)cc2F)c(-c2ccccc2)n1 [Example 71, (R)-2-fluoro-N-(5-((2-hydroxypropanamido)methyl)-3-phenylpyrazin-2-yl)-5-(1-methyl-1H-pyrazol-3-yl)-4-(trifluoromethyl)benzamide] | 3.6 nM
7 | C[C@H](O)C(=O)N(C)Cc1ccc(NC(=O)c2cc(-c3ccn(C)n3)c(C(F)(F)F)cc2F)c(-c2ccccc2)n1 [Example 72, (S)-2-fluoro-N-(6-((2-hydroxy-N-methylpropanamido)methyl)-2-phenylpyridin-3-yl)-5-(1-methyl-1H-pyrazol-3-yl)-4-(trifluoromethyl)benzamide] | 0.57 nM
8 | C[C@@H](N)C(=O)NCc1ncc(NC(=O)c2cc(-c3ccn(C)n3)c(C(F)(F)F)cc2F)c(-c2ccccc2)n1 [Example 73, (R)-N-(2-((2-aminopropanamido)methyl)-4-phenylpyrimidin-5-yl)-2-fluoro-5-(1-methyl-1H-pyrazol-3-yl)-4-(trifluoromethyl)benzamide] | 1 nM
9 | Cn1ccc(-c2cc(C(=O)Nc3cnc(CNC(=O)[C@@H]4COCCN4)nc3-c3ccccc3)c(F)cc2C(F)(F)F)n1 [Example 74, (S)-N-((5-(2-fluoro-5-(1-methyl-1H-pyrazol-3-yl)-4-(trifluoromethyl)benzamido)-4-phenylpyrimidin-2-yl)methyl)morpholine-3-carboxamide] | 2 nM
10 | Cn1ccc(-c2cc(C(=O)Nc3cnc(CNS(C)(=O)=O)nc3-c3ccccc3)ccc2C(F)(F)F)n1 [Example 75, 3-(1-methyl-1H-pyrazol-3-yl)-N-(2-(methylsulfonamidomethyl)-4-phenylpyrimidin-5-yl)-4-(trifluoromethyl)benzamide] | 12 nM
11 | Cn1ccc(-c2cc(C(=O)Nc3cnc(CNC(N)=O)nc3-c3ccccc3)c(F)cc2C(F)(F)F)n1 [Example 76, 2-Fluoro-5-(1-methyl-1H-pyrazol-3-yl)-N-(4-phenyl-2-(ureidomethyl)pyrimidin-5-yl)-4-(trifluoromethyl)benzamide] | 0.84 nM
12 | Cn1ccc(-c2cc(C(=O)Nc3cnc(CN4CCNC4=O)nc3-c3ccccc3)c(F)cc2C(F)(F)F)n1 [Example 77, 2-fluoro-5-(1-methyl-1H-pyrazol-3-yl)-N-(2-((2-oxoimidazolidin-1-yl)methyl)-4-phenylpyrimidin-5-yl)-4-(trifluoromethyl)benzamide] | 1 nM
13 | CN(Cc1ccc(NC(=O)c2cc(-c3ccn(C)n3)c(C(F)(F)F)cc2F)c(-c2ccccc2)n1)C(N)=O [Example 78, 2-fluoro-5-(1-methyl-1H-pyrazol-3-yl)-N-(6-((1-methylureido)methyl)-2-phenylpyridin-3-yl)-4-(trifluoromethyl)benzamide] | 1.1 nM
14 | CN(Cc1ccc(NC(=O)c2cc(-c3ccn(C)n3)c(C(F)(F)F)cc2F)c(-c2ccccc2)n1)C(=O)NCCO [Example 79, 2-fluoro-N-(6-((3-(2-hydroxyethyl)-1-methylureido)methyl)-2-phenylpyridin-3-yl)-5-(1-methyl-1H-pyrazol-3-yl)-4-(trifluoromethyl)benzamide] | 1.1 nM
15 | Cn1ccc(-c2cc(C(=O)Nc3cnc(COC(N)=O)nc3-c3ccccc3)c(F)cc2C(F)(F)F)n1 [Example 80, (5-(2-Fluoro-5-(1-methyl-1H-pyrazol-3-yl)-4-(trifluoromethyl)benzamido)-4-phenylpyrimidin-2-yl)methyl carbamate] | 0.49 nM
16 | Cn1ccc(-c2cc(C(=O)Nc3cc(C(=O)O)cnc3-c3ccccc3)c(F)cc2C(F)(F)F)n1 [Example 81, 5-(2-Fluoro-5-(1-methyl-1H-pyrazol-3-yl)-4-(trifluoromethyl)benzamido)-6-phenylnicotinic acid] | 14 nM

Row | Compound | IC50
17 | CN(C)C(=O)c1cnc(-c2ccccc2)c(NC(=O)c2cc(-c3ccn(C)n3)c(C(F)(F)F)cc2F)c1 [Example 82, 5-(2-Fluoro-5-(1-methyl-1H-pyrazol-3-yl)-4-(trifluoromethyl)benzamido)-N,N-dimethyl-6-phenylnicotinamide] | 11 nM
18 | CNC(=O)c1cnc(-c2ccccc2)c(NC(=O)c2cc(-c3ccn(C)n3)c(C(F)(F)F)cc2F)c1 [Example 83, 5-(2-fluoro-5-(1-methyl-1H-pyrazol-3-yl)-4-(trifluoromethyl)benzamido)-N-methyl-6-phenylnicotinamide] | 1.1 nM
19 | C[C@H](O)CNC(=O)c1cnc(-c2ccccc2)c(NC(=O)c2cc(-c3ccn(C)n3)c(C(F)(F)F)cc2F)c1 [Example 84, (S)-5-(2-fluoro-5-(1-methyl-1H-pyrazol-3-yl)-4-(trifluoromethyl)benzamido)-N-(2-hydroxypropyl)-6-phenylnicotinamide] | 1.2 nM
20 | C[C@@H](CO)NC(=O)c1cnc(-c2ccccc2)c(NC(=O)c2cc(-c3ccn(C)n3)c(C(F)(F)F)cc2F)c1 [Example 85, (S)-5-(2-fluoro-5-(1-methyl-1H-pyrazol-3-yl)-4-(trifluoromethyl)benzamido)-N-(1-hydroxypropan-2-yl)-6-phenylnicotinamide] | 0.58 nM
21 | Cc1cnn(-c2ccc(C(N)=O)cc2NC(=O)c2ccc(C(F)(F)F)c(-c3ccn(C)n3)c2)c1 [Example 86, N-(5-carbamoyl-2-(4-methyl-1H-pyrazol-1-yl)phenyl)-3-(1-methyl-1H-pyrazol-3-yl)-4-(trifluoromethyl)benzamide] | 19 nM
22 | Cn1ccc(-c2cc(C(=O)Nc3cc(C(N)=O)c(N)nc3-c3ccccc3)ccc2C(F)(F)F)n1 [Example 87, 2-amino-5-(3-(1-methyl-1H-pyrazol-3-yl)-4-(trifluoromethyl)benzamido)-6-phenylnicotinamide] | 8.5 nM
23 | O=C(Nc1cnc(C(=O)N2CCOCC2)nc1-c1ccccc1)c1ccc(C(F)(F)F)c(-c2cc[nH]n2)c1 [Example 88, N-(2-(morpholine-4-carbonyl)-4-phenylpyrimidin-5-yl)-3-(1H-pyrazol-3-yl)-4-(trifluoromethyl)benzamide] | 1200 nM
24 | Cn1ccc(-c2cc(C(=O)Nc3cc(C(N)=O)cnc3-c3ccccc3)ccc2C(F)(F)F)n1 [Example 89, 5-(3-(1-methyl-1H-pyrazol-3-yl)-4-(trifluoromethyl)benzamido)-6-phenylnicotinamide] | 1.5 nM
25 | CN1CC(NC(=O)c2cnc(-c3ccccc3)c(NC(=O)c3cc(-c4cc[nH]n4)c(C(F)(F)F)cc3F)c2)C1 [Example 90, 5-(2-fluoro-5-(1H-pyrazol-3-yl)-4-(trifluoromethyl)benzamido)-N-(1-methylazetidin-3-yl)-6-phenylnicotinamide] | 80 nM
26 | NC(=O)c1cnc(-c2ccccc2)c(NC(=O)c2cc(-c3ncccn3)c(C(F)(F)F)cc2F)c1 [Example 91, 5-(2-fluoro-5-(pyrimidin-2-yl)-4-(trifluoromethyl)benzamido)-6-phenylnicotinamide] | 11 nM
27 | O=C(NCc1cccnc1)c1cnc(-c2ccccc2)c(NC(=O)c2cc(-c3ncccn3)c(C(F)(F)F)cc2F)c1 [Example 92, 5-(2-fluoro-5-(pyrimidin-2-yl)-4-(trifluoromethyl)benzamido)-6-phenyl-N-(pyridin-3-ylmethyl)nicotinamide] | 2.2 nM
28 | NC(=O)c1cnc(-c2ccccc2)c(NC(=O)c2cc(-c3cc[nH]n3)c(C(F)(F)F)cc2F)c1 [Example 93, 5-(2-fluoro-5-(1H-pyrazol-3-yl)-4-(trifluoromethyl)benzamido)-6-phenylnicotinamide] | 5.7 nM
29 | Cn1ccc(-c2cc(C(=O)Nc3cc(C(N)=O)nnc3-c3ccccc3)c(F)cc2C(F)(F)F)n1 [Example 94, 5-(2-fluoro-5-(1-methyl-1H-pyrazol-3-yl)-4-(trifluoromethyl)benzamido)-6-phenylpyridazine-3-carboxamide] | 9.3 nM
30 | CN1CC(=O)N(Cc2ncc(NC(=O)c3cc(-c4ccn(C)n4)c(C(F)(F)F)cc3F)c(-c3ccccc3)n2)C1=O [Example 95, 2-Fluoro-5-(1-methyl-1H-pyrazol-3-yl)-N-(2-((3-methyl-2,5-dioxoimidazolidin-1-yl)methyl)-4-phenylpyrimidin-5-yl)-4-(trifluoromethyl)benzamide] | 0.11 nM
31 | Cn1ccc(-c2cc(C(=O)Nc3cnc(CN4C(=O)CNC4=O)nc3-c3ccccc3)c(F)cc2C(F)(F)F)n1 [Example 96, N-(2-((2,5-dioxoimidazolidin-1-yl)methyl)-4-phenylpyrimidin-5-yl)-2-fluoro-5-(1-methyl-1H-pyrazol-3-yl)-4-(trifluoromethyl)benzamide] | 0.083 nM
32 | Cn1ccc(-c2cc(C(=O)Nc3cnc(CN4C(=O)COC4=O)nc3-c3ccccc3)c(F)cc2C(F)(F)F)n1 [Example 97, N-(2-((2,4-dioxooxazolidin-3-yl)methyl)-4-phenylpyrimidin-5-yl)-2-fluoro-5-(1-methyl-1H-pyrazol-3-yl)-4-(trifluoromethyl)benzamide] | 0.25 nM
